Source: patent publication US20250367269A1, “KYNURENINE AMINOTRANSFERASE AND PRODUCTS THEREOF FOR THE TREATMENT OF ARTHRITIC DISEASES” (Institut National de Recherche Pour L'Agriculture, …, priority 2022, published 2025)

System: collagen-antibody induced arthritis
Assay: collagen-antibody induced arthritis model
Assay type: in vivo, C57BL6J male mice
Settings: administration in collagen-antibody induced arthritis mouse model; summary statement, no details
Protocol: C57BL6J male mice were injected intraperitoneally with a cocktail of arthritogenic anti-type II collagen (2 mg/mouse) at day 0. At day 3, mice received an injection of lipopolysaccharide from bacterial cells walls of E. coli 055: B5. The severity of arthritis was evaluated every other day on each paw with a score from 0 to 4, for a maximal score of 16 by animal (0=normal joint, 1=moderate redness and slight swelling or swelling of one or two digits, 2=moderate redness and moderate paw swelling or swelling more than three digits, 3=redness and swelling from tarsal joints to metatarsal joints, 4=severe redness and severe swelling of the entire paw). Hindpaw swelling was measured at the same time by plethysmography. Paw volume determined prior to disease induction was used as the baseline. The development of arthritis was analyzed by histological assessment. Hindpaws were dissected then fixed in 4% formalin (Labonord). Hindpaws were further decalcified in 10% EDTA for 1 month and embedded in paraffin blocks. Five μm-thick tissue sections were cut and two stainings were performed, hematoxylin, eosin and toluidine blue. Histological examination was carried out blindly by three independent observers. Synovium from ankle joint was graded on a scale of 0 to 3 (with 0=normal and 3=major changes) for synovial hyperplasia (width of lining layer) and tissue cell infiltration. […]

O=C(O)c1cc(O)c2cccc(O)c2n1 [xanthurenic acid]
arthritis severity: reduces arthritis severity
